Experimental data from patent publication US7786141B2 (Vertex Pharmaceuticals Incorporated, priority 2004, dated 2010).

Columns and labels:
[1] = molecular target: T1, M1 muscarinic receptor (Homo sapiens, UniProt P11229); assay: Functional mobilization of intracellular calcium (FLIPR) in M1-CHO cells; format: cell-based; settings: Table 4; for Emax: 100% efficacy is the maximum response obtained with the Carbachol control; for M1 Activity: modulating M1 receptor
T1 construct: expressed in transfected cells; host or cells: CHO (M1-CHO)
T1 sequence (P11229 1-460): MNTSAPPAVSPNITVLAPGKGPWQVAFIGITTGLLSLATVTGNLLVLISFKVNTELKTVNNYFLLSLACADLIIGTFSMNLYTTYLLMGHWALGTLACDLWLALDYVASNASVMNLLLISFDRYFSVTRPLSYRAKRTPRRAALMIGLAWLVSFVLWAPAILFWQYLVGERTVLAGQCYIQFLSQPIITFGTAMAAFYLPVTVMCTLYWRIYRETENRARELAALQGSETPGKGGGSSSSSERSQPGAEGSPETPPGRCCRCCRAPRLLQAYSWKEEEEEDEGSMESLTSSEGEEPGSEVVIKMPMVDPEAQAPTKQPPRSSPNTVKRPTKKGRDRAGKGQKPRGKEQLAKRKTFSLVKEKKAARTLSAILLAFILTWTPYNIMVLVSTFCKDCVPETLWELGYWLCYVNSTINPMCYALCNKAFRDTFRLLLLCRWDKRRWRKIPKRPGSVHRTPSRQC
Method in brief: (§1)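 Steps: seed M1- or M4-CHO cells 18-24 hrs ahead; load calcium dye with 1 mM probenecid; add test compound (0.5% DMSO final), either alone for agonism or 15 min before EC80 carbachol for inhibition; record FLIPR fluorescence for 60 sec.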

[2] = molecular target: T2, M4 muscarinic receptor (Homo sapiens, UniProt P08173); assay: Functional mobilization of intracellular calcium (FLIPR) in M4-CHO cells; format: cell-based; settings: Table 4; for Emax: 100% efficacy is the maximum response obtained with the Carbachol control; for M4 Activity: modulating M4 receptor
T2 construct: expressed in transfected cells; host or cells: CHO (M4-CHO)
T2 sequence (P08173 1-479): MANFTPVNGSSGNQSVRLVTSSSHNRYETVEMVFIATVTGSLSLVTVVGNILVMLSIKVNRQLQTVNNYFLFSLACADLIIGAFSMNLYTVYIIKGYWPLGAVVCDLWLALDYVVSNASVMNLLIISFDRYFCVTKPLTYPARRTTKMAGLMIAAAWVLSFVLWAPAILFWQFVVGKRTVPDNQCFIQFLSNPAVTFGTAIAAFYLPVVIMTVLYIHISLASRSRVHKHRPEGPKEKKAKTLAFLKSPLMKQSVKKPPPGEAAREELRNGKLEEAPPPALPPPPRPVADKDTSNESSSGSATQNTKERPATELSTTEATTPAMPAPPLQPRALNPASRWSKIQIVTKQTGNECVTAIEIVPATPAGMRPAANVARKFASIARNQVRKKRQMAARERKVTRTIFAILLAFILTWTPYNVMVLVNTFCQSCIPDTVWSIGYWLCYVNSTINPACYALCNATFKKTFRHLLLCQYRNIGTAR
Method in brief: as §1

SMILES	Emax [1]	M1 Activity [1]	Emax [2]	M4 Activity [2]
COC(=O)N1CCC(N2CCC3(CC2)CN(C(C)=O)c2ccc(F)cc23)C1 (stereo not shown) [compound 771]	< 25%	x (activity was measured to be greater than 5.0 μM)	< 25%	x (activity was measured to be greater than 5.0 μM)
CN(C)C(=O)N1CC2(CCN(C3CCCN(C(=O)OCCF)CC3)CC2)c2cc(F)ccc21 (stereo not shown) [compound 772]	25 to 100%	xxx (activity was measured to be less than 2.0 μM)	25 to 100%	xxx (activity was measured to be less than 2.0 μM)
CS(=O)(=O)N[C@H]1CCC2(CCN(CC3CCCCC3)CC2)c2ccccc21 [compound 773]	25 to 100%	xxx (activity was measured to be less than 2.0 μM)	25 to 100%	xxx (activity was measured to be less than 2.0 μM)
CCOC(=O)N1CCC(N2CCC3(CC2)C[C@H](NC(C)=O)c2cc(OC)c(OC)cc23)CC1 [compound 774]	25 to 100%	x (activity was measured to be greater than 5.0 μM)	25 to 100%	x (activity was measured to be greater than 5.0 μM)
C#CCOC(=O)N1CC[C@@H](CN2CCC3(CC2)CN(C(=O)N(C)C)c2ccc(F)cc23)C1 [compound 775]	25 to 100%	xxx (activity was measured to be less than 2.0 μM)	25 to 100%	xxx (activity was measured to be less than 2.0 μM)
CC#CCOC(=O)N1C2CCC1CC(N1CCC3(CC1)CN(C(C)=O)c1ccccc13)C2 (stereo not shown) [compound 777]	25 to 100%	xxx (activity was measured to be less than 2.0 μM)	25 to 100%	xxx (activity was measured to be less than 2.0 μM)
O=C(N[C@H]1CC2(CCN(C3CCCCC3)CC2)c2ccccc21)C1CC1 [compound 779]	25 to 100%	xx (activity was measured to be between 2.0 μM and 5.0 μM)	< 25%	xxx (activity was measured to be less than 2.0 μM)
CC(=O)N[C@H]1CC2(CCN(CC(=O)N3CCC(=O)N3)CC2)c2ccccc21 [compound 780]	< 25%	x (activity was measured to be greater than 5.0 μM)	< 25%	x (activity was measured to be greater than 5.0 μM)
CN(C)C(=O)N1CC2(CCN(C3CCN(C(=O)C4COc5ccccc5O4)CC3)CC2)c2cc(F)ccc21 (stereo not shown) [compound 781]	25 to 100%	x (activity was measured to be greater than 5.0 μM)	< 25%	x (activity was measured to be greater than 5.0 μM)
CC(=O)N[C@H]1CC2(CCN(CC(=O)N3C[C@@H](C)O[C@@H](C)C3)CC2)c2ccccc21 [compound 782]	< 25%	x (activity was measured to be greater than 5.0 μM)	< 25%	x (activity was measured to be greater than 5.0 μM)
CCOC(=O)N1CCC(N2CCC3(CC2)CC(=O)c2cc(C)ccc23)CC1 [compound 783]	25 to 100%	xxx (activity was measured to be less than 2.0 μM)	25 to 100%	xx (activity was measured to be between 2.0 μM and 5.0 μM)
CC(=O)N[C@H]1CC2(CCN(CCC3=C(C)CCCC3(C)C)CC2)c2ccccc21 [compound 784]	< 25%	x (activity was measured to be greater than 5.0 μM)	< 25%	x (activity was measured to be greater than 5.0 μM)
CCOC(=O)N1CCC(CN2CCC3(CC2)CN(C(C)=O)c2c(C)cccc23)CC1 [compound 785]	25 to 100%	xx (activity was measured to be between 2.0 μM and 5.0 μM)	25 to 100%	xxx (activity was measured to be less than 2.0 μM)
O=C1CC2(CCN([C@@H]3C[C@@H]4CC[C@@H]3C4)CC2)c2cc(Cl)ccc21 [compound 787]	25 to 100%	xxx (activity was measured to be less than 2.0 μM)	25 to 100%	xxx (activity was measured to be less than 2.0 μM)
Clc1ccc2c(c1)C1(CCN(CC3CC4C=CC3C4)CC1)C[C@@H]2NCC1CC2C=CC1C2 (stereo partly shown) [compound 788]	25 to 100%	xx (activity was measured to be between 2.0 μM and 5.0 μM)	25 to 100%	xx (activity was measured to be between 2.0 μM and 5.0 μM)
CN(C)C(=O)N[C@H]1CCC2(CCN([C@@H]3C[C@@H]4CC[C@H]3C4)CC2)c2ccccc21 [compound 789]	25 to 100%	x (activity was measured to be greater than 5.0 μM)	25 to 100%	x (activity was measured to be greater than 5.0 μM)
CN(C)C(=O)N1CC2(CCN(C3CCN(c4ncccn4)CC3)CC2)c2cc(F)ccc21 [compound 790]	25 to 100%	xx (activity was measured to be between 2.0 μM and 5.0 μM)	25 to 100%	xxx (activity was measured to be less than 2.0 μM)
CN(C)C(=O)N1CC2(CCN(C3CCN(C(=O)c4ccncc4)CC3)CC2)c2cc(F)ccc21 [compound 791]	25 to 100%	xx (activity was measured to be between 2.0 μM and 5.0 μM)	< 25%	x (activity was measured to be greater than 5.0 μM)
CC(=O)N[C@H]1CC2(CCN(CC(=O)N3CCCCC3)CC2)c2ccccc21 [compound 792]	25 to 100%	x (activity was measured to be greater than 5.0 μM)	25 to 100%	x (activity was measured to be greater than 5.0 μM)
CCC#CCOC(=O)N1CC[C@@H](CN2CCC3(CC2)CN(C(C)=O)c2cccc(C)c23)C1 [compound 793]	25 to 100%	xxx (activity was measured to be less than 2.0 μM)	25 to 100%	xxx (activity was measured to be less than 2.0 μM)
CC(=O)N1CC2(CCN(C3CCN(c4ncc(C)s4)CC3)CC2)c2ccccc21 [compound 794]	< 25%	x (activity was measured to be greater than 5.0 μM)	< 25%	x (activity was measured to be greater than 5.0 μM)
CN(C)C(=O)N1CC2(CCN(C3CCN(C(=O)c4cccnc4)CC3)CC2)c2cc(F)ccc21 [compound 795]	< 25%	xx (activity was measured to be between 2.0 μM and 5.0 μM)	< 25%	x (activity was measured to be greater than 5.0 μM)
CC(=O)CN1CC2(CCN(C3CCCCC3)CC2)c2cc(F)ccc21 [compound 796]	25 to 100%	xxx (activity was measured to be less than 2.0 μM)	25 to 100%	xxx (activity was measured to be less than 2.0 μM)
CCCC(=O)N[C@H]1CC2(CCN(CC3CCCCC3)CC2)c2ccccc21 [compound 797]	25 to 100%	x (activity was measured to be greater than 5.0 μM)	25 to 100%	xxx (activity was measured to be less than 2.0 μM)
O=C(N[C@H]1CC2(CCN(CCC3CC4CC[C@@H]3C4)CC2)c2ccccc21)c1ccoc1 (stereo partly shown) [compound 798]	< 25%	x (activity was measured to be greater than 5.0 μM)	< 25%	x (activity was measured to be greater than 5.0 μM)
CCOC(=O)N1CCC(N2CCC3(CC2)CN(C(C)=O)c2c(-c4ccccc4OC)cccc23)CC1 [compound 799]	< 25%	x (activity was measured to be greater than 5.0 μM)	< 25%	x (activity was measured to be greater than 5.0 μM)
CCOC(=O)N1CCC(N2CCC3(CC2)CN(CC(=O)N(C)C)c2ccc(F)cc23)CC1 [compound 800]	25 to 100%	xxx (activity was measured to be less than 2.0 μM)	25 to 100%	xxx (activity was measured to be less than 2.0 μM)
O=C(N[C@H]1CC2(CCN(C3CCCCC3)CC2)c2ccccc21)c1ccoc1 [compound 801]	< 25%	x (activity was measured to be greater than 5.0 μM)	< 25%	x (activity was measured to be greater than 5.0 μM)
